Columns and labels:
cannabinoid CB1 receptor = target: T1, cannabinoid CB1 receptor (Homo sapiens, UniProt P21554); assay: PathHunter β-Arrestin assay (allosteric inhibition of agonist Emax); format: cell-based; details: HEK293 CB1 β-arrestin cells; concentration of modulator giving 50% reduction in agonist Emax; 60 min pre-incubation
T1 construct: host or cells: HEK293 CB1 β-arrestin cells
Excerpt: PathHunter™ enzyme fragment complementation is the most important method to measure β-arrestin recruitment. PathHunter™ β-Arrestin assays developed by DiscoveRX are revolutionary high-throughput screening assays for monitoring GPCR activation following ligand stimulation, without an imaging instrument, fluorescent protein tag, or radioactivity.
Instead, the assays detect GPCR activation through binding of β-arrestin to the expressed GPCR of interest, and measure the interaction of the two proteins using enzyme fragment complementation (EFC). The EFC approach offers a range of benefits for screening, including signal amplification and robust performance.
The larger portion of β-gal, termed EA for enzyme acceptor, is fused to the C-terminus of β-arrestin. The smaller, complementing fragment of β-gal, the ProLink™ tag, is expressed as a fusion protein with the GPCR of interest at the C-terminus. Upon activation, the GPCR is bound by β-arrestin. The interaction of β-arrestin and the GPCR forces the interaction of ProLink and EA, thus allowing complementation of the two fragments of β-gal and the formation of a functional enzyme capable of hydrolyzing substrate and generating a […] signal.
Using the PathHunter™ CB1 kit from DiscoveRX, a cannabinoid CB1 receptor agonist is added and activates the receptor, EA, which is fused to the C-terminus of β-arrestin, and then interacts with the ProLink™ tag which is fused to the CB1 receptor. This will result in the […] signal that is recorded by a luminescence plate reader. The […] signal is directly related to the activation of the receptor, therefore a higher concentration of agonist will yield a larger […] signal. The cannabinoid agonist is added in increasing concentrations to obtain an agonist dose response curve. With pre-incubation of a potential allosteric modulator, either an enhancement of agonist activity with an allosteric enhancer or a decrease in the maximal response of the agonist with an allosteric inhibitor is expected.
All raw data are obtained as luminescence (relative light units), and are normalised and presented as a percentage of the maximal response for the cannabinoid CB1 receptor agonist CP55,940 (2-[(1R,2R,5R)-5-hydroxy-2-(3-hydroxypropyl)cyclohexyl]-5-(2-methyloctan-2-yl)phenol).
The PathHunter™ β-Arrestin assay (from DiscoveRX, Fremont, USA) was performed as follows. HEK293 CB1 β-arrestin cells were plated 48 hours before use and incubated at 37° C., 5% CO2 in a humidified incubator. Test compounds were dissolved in dimethylsulfoxide (DMSO) and diluted in optimized cell culture (OCC, as supplied by DiscoveRX) media to the required concentrations. 5 μL of test compound or vehicle solution was added to each well and incubated for 60 minutes at 37° C., 5% CO2 in a humidified incubator. 5 μL of increasing concentrations of anandamide was added to each well followed by a 90-minute incubation at 37° C., 5% CO2 in a humidified incubator. 55 μL of detection reagent (as supplied by DiscoveRX) was then added, followed by a further 90 minute incubation at room temperature in the dark. Chemiluminescence, reported in relative light units (RLU—a dimensionless value, standardised as a % of maximum stimulation with anandamide), was measured on a standard luminescence plate reader.
Data were plotted as % of maximal stimulation (Emax) caused by agonist versus the logarithm of concentration of agonist, in the presence or absence of a fixed concentration of test compound (modulator) or vehicle. For example, stimulation in the presence of agonist alone will give a value for stimulation expressed in RLU, which can be expressed as a range from 0% (at lowest agonist concentration, e.g., 1 nM) to 100% (at the highest agonist concentration, e.g., 10 μM). […]

T1 sequence (P21554 whole entry): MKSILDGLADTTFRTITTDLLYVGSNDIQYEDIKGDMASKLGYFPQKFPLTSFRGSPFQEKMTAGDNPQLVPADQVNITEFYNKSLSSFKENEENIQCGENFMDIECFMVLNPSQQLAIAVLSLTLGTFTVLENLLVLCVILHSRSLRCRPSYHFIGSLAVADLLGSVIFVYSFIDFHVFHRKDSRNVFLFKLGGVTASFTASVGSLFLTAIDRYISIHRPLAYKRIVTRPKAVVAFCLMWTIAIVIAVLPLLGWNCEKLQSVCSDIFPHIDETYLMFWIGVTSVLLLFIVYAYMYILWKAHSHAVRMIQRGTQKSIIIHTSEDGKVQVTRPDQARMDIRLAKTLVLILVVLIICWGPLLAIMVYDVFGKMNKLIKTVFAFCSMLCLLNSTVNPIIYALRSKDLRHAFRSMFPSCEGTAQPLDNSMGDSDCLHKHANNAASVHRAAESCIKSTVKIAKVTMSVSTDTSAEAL

melting point [°C]	IC50 (cannabinoid CB1 receptor) [nM]	SMILES
134 to 135		CCc1c(-c2nnc(SCCCc3ccccc3)o2)[nH]c2ccc(Br)cc12 [ABM326, 2-(5-Bromo-3-ethyl-1H-indol-2-yl)-5-((3-phenylpropyl)thio)-1,3,4-oxadiazole]
268 to 270	2	Cc1c(-c2nnc(Nc3ccccc3)o2)[nH]c2ccc(Cl)cc12 [ABM311, 5-(5-Chloro-3-methyl-1H-indol-2-yl)-N-phenyl-1,3,4-oxadiazol-2-amine]
170 to 172	1	CCc1c(-c2nnc(NCCc3ccccc3)o2)[nH]c2ccc(Br)cc12 [ABM320, 5-(5-Bromo-3-ethyl-1H-indol-2-yl)-N-phenethyl-1,3,4-oxadiazol-2-amine]
235 to 237	3	Clc1ccc2[nH]c(-c3nnc(NCCc4ccccc4)o3)cc2c1 [ABM318, 5-(5-Chloro-1H-indol-2-yl)-N-phenethyl-1,3,4-oxadiazol-2-amine]
185 to 186	315	CCc1c(-c2nnc(SCCc3ccccc3)o2)[nH]c2ccc(Br)cc12 [ABM325]
175 to 177	0.5	CCc1c(-c2nnc(NCCc3ccccc3)o2)[nH]c2ccc(Cl)cc12 [ABM317, 5-(5-Chloro-3-ethyl-1H-indol-2-yl)-N-phenethyl-1,3,4-oxadiazol-2-amine]
215 to 216	93	Cc1c(-c2nnc(SCc3ccccc3)o2)[nH]c2ccc(Cl)cc12 [ABM321, 2-(Benzylthio)-5-(5-chloro-3-methyl-1H-indol-2-yl)-1,3,4-oxadiazole]
170 to 172		CCc1c(-c2nnc(SCCCc3ccccc3)o2)[nH]c2ccc(Cl)cc12 [ABM330, 2-(5-Chloro-3-ethyl-1H-indol-2-yl)-5-((3-phenylpropyl)thio)-1,3,4-oxadiazole]
245 to 247	105	Clc1ccc2[nH]c(-c3nnc(NCc4ccccc4)o3)cc2c1 [ABM314, N-Benzyl-5-(5-chloro-1H-indol-2-yl)-1,3,4-oxadiazol-2-amine]
179 to 181	56	CCc1c(-c2nnc(SCc3ccc(OC)cc3)o2)[nH]c2ccc(Cl)cc12 [ABM331, 2-(5-Chloro-3-ethyl-1H-indol-2-yl)-5-((4-methoxybenzyl)thio)-1,3,4-oxadiazole]
179 to 180	263	Cc1c(-c2nnc(SCCCc3ccccc3)o2)[nH]c2ccc(Cl)cc12 [ABM323, 2-(5-Chloro-3-methyl-1H-indol-2-yl)-5-((3-phenylpropyl)thio)-1,3,4-oxadiazole]
	930	CCc1c(-c2nnc(SCCc3ccccc3)o2)[nH]c2ccc(Cl)cc12 [ABM329, 2-(5-Chloro-3-ethyl-1H-indol-2-yl)-5-(phenethylthio)-1,3,4-oxadiazole]
265 to 267	5	Fc1ccc(Nc2nnc(-c3cc4cc(Cl)ccc4[nH]3)o2)cc1 [ABM336, 5-(5-Chloro-1H-indol-2-yl)-N-(4-fluorophenyl)-1,3,4-oxadiazol-2-amine]
220 to 222	7	Cc1c(-c2nnc(NCc3ccccc3)o2)[nH]c2ccc(Cl)cc12 [ABM315, N-Benzyl-5-(5-chloro-3-methyl-1H-indol-2-yl)-1,3,4-oxadiazol-2-amine]
181 to 183		CCc1c(-c2nnc(SCc3ccc(OC)cc3)o2)[nH]c2ccc(Br)cc12 [ABM309, 2-(5-Bromo-3-ethyl-1H-indol-2-yl)-5-((4-methoxybenzyl)thio)-1,3,4-oxadiazole]
218 to 220	12	CCc1c(-c2nnc(NCc3ccccc3)o2)[nH]c2ccc(Br)cc12 [ABM316, N-Benzyl-5-(5-bromo-3-ethyl-1H-indol-2-yl)-1,3,4-oxadiazol-2-amine]

melting point [°C]	IC50 (cannabinoid CB1 receptor) [nM]	SMILES
183 to 185	30	CCc1c(-c2nnc(SCc3ccccc3)o2)[nH]c2ccc(Br)cc12 [ABM305, 2-(Benzylthio)-5-(5-bromo-3-ethyl-1H-indol-2-yl)-1,3,4-oxadiazole]
212 to 214		Cc1ccc(CSc2nnc(-c3[nH]c4ccc(Cl)cc4c3C)o2)cc1 [ABM324, 2-(5-Chloro-3-methyl-1H-indol-2-yl)-5-((4-methylbenzyl)thio)-1,3,4-oxadiazole]
256 to 258	1	Cc1c(-c2nnc(Nc3ccc(F)cc3)o2)[nH]c2ccc(Cl)cc12 [ABM337, 5-(5-Chloro-3-methyl-1H-indol-2-yl)-N-(4-fluorophenyl)-1,3,4-oxadiazol-2-amine]
240 to 242	1	CCc1c(-c2nnc(Nc3ccccc3)o2)[nH]c2ccc(Br)cc12 [ABM312, 5-(5-Bromo-3-ethyl-1H-indol-2-yl)-N-phenyl-1,3,4-oxadiazol-2-amine]
184 to 186	172	c1ccc(CCSc2nnc(-c3cc4ccccc4[nH]3)o2)cc1 [ABM334, 2-(1H-Indol-2-yl)-5-(phenethylthio)-1,3,4-oxadiazole]
272 to 274	3	Clc1ccc2[nH]c(-c3nnc(Nc4ccccc4)o3)cc2c1 [ABM310, 5-(5-Chloro-1H-indol-2-yl)-N-phenyl-1,3,4-oxadiazol-2-amine]
216 to 218	12	CCc1c(-c2nnc(NCc3ccccc3)o2)[nH]c2ccc(Cl)cc12 [ABM313, N-Benzyl-5-(5-chloro-3-ethyl-1H-indol-2-yl)-1,3,4-oxadiazol-2-amine]
210 to 212	68	COc1ccc(CSc2nnc(-c3[nH]c4ccc(Cl)cc4c3C)o2)cc1 [ABM301, 2-(5-Chloro-3-methyl-1H-indol-2-yl)-5-((4-methoxybenzyl)thio)-1,3,4-oxadiazole]
195 to 197	85	CCc1c(-c2nnc(SCc3ccc(C)cc3)o2)[nH]c2ccc(Cl)cc12 [ABM332, 2-(5-Chloro-3-ethyl-1H-indol-2-yl)-5-((4-methylbenzyl)thio)-1,3,4-oxadiazole]
195 to 197	1	Cc1c(-c2nnc(NCCc3ccccc3)o2)[nH]c2ccc(Cl)cc12 [ABM319, 5-(5-Chloro-3-methyl-1H-indol-2-yl)-N-phenethyl-1,3,4-oxadiazol-2-amine]
222 to 224	417	Cc1c(-c2nnc(SCCc3ccccc3)o2)[nH]c2ccc(Cl)cc12 [ABM322, 2-(5-Chloro-3-methyl-1H-indol-2-yl)-5-(phenethylthio)-1,3,4-oxadiazole]
248 to 250	1	CCc1c(-c2nnc(Nc3ccc(F)cc3)o2)[nH]c2ccc(Cl)cc12 [ABM335, 5-(5-Chloro-3-ethyl-1H-indol-2-yl)-N-(4-fluorophenyl)-1,3,4-oxadiazol-2-amine]
210 to 212	270	Cc1c(-c2nnc(SCc3ccc(F)cc3)o2)[nH]c2ccc(Cl)cc12 [ABM339, 2-(5-Chloro-3-methyl-1H-indol-2-yl)-5-((4-fluorobenzyl)thio)-1,3,4-oxadiazole]
201 to 203	67	CCc1c(-c2nnc(SCc3ccc(C)cc3)o2)[nH]c2ccc(Br)cc12 [ABM327, 2-(5-Bromo-3-ethyl-1H-indol-2-yl)-5-((4-methylbenzyl)thio)-1,3,4-oxadiazole]
178 to 180		c1ccc(CSc2nnc(-c3cc4ccccc4[nH]3)o2)cc1 [ABM333, 2-(Benzylthio)-5-(1H-indol-2-yl)-1,3,4-oxadiazole]
